Data taken from patent publication US20050239767A1, “Intermolecular SNAr of the heterocycle-activated nitro and fluoro groups-application in the synthesis of polyazamacrocyclic ligands” (priority 2003, published 2005).

Columns and labels:
HIV-1 = assay: NCI in vitro anti-HIV drug screening test (protection of T4 lymphocytes from HIV cytolysis, XTT readout); type: cell-based; conditions: T4 lymphocytes (CEM cell line) infected with HIV-1, 6 days, XTT formazan; numerical EC50/IC50/TI only in FIGS. 1-4
Procedure: The procedure used in the NCI's test for agents active against HIV is designed to detect agents acting at any stage of the virus reproductive cycle. The assay basically involves the killing of T4 lymphocytes by HIV. Small amounts of HIV are added to cells, and two cycles of virus reproduction are necessary to obtain the required cell killing. Agents that interact with virions, cells, or virus gene-products to interfere with vital activities will protect cells from cytolysis. All tests are done with at least one positive (e.g., AZT-treated) control done at the same time under identical conditions. The procedure is as follows:
Candidate agent was dissolved in dimethyl sulfoxide then diluted 1:100 in cell culture medium before preparing serial half-log10 dilutions. […]
Individual wells were analyzed spectrophotometrically to quantitate formazan production, and in addition were viewed microscopically for detection of viable cells and confirmation of protective activity. […]
The figures display a plot of the log10 of the sample's concentrations (as μg/mL or M) against the measured test values expressed as a percentage of the uninfected, untreated control values. […] The percent protection has been calculated from the data and is presented on the left side of the graph. […]

Work on Cc1cccc2c1nc1n2CC(C(C)(C)C)Oc2c(Cl)cccc2-1 (centres unmarked) yielded a melting point of 191 to 192 °C.

OCC1Cn2c(nc3ccccc32)-c2ccccc2O1 (centres unmarked) gave a melting point of 142 to 143.5 °C.

Work on Cc1cccc2c1nc1n2CC(CO)Oc2c(Cl)cccc2-1 (centres unmarked) yielded a melting point of 186.5 to 188 °C.

In the case of CC(C)(C)C1Cn2c(nc3c(C4OCCO4)cccc32)-c2ccccc2O1 (centres unmarked), the melting point is reported as 200 to 201 °C.

For Cc1ccc(S(=O)(=O)OCC2Cn3c(nc4ccccc43)-c3ccccc3O2)cc1 (centres unmarked), the melting point was 165.5 to 166.5 °C.

Cc1ccc(S(=O)(=O)OCC2Cn3c(nc4c(C)cccc43)-c3cccc(Cl)c3O2)cc1 (centres unmarked) showed a melting point of 168 to 169 °C.

In the case of CC(C)(C)C1Cn2c(nc3ccccc32)-c2ccccc2O1 (centres unmarked), the melting point is reported as 149 to 150 °C.

For C[C@H]1Cn2c(nc3c(C4OCCO4)cccc32)-c2c(cccc2[N+](=O)[O-])O1, the “activity against HIV” value (HIV-1) was “confirmed active”.
